The text below walks through data of ChEMBL document CHEMBL5143608, “Peptide-based long-acting co-agonists of GLP-1 and cholecystokinin 1 receptors as novel anti-diabesity agents” (Eur J Med Chem, 2022).

Activity calls are given as the source filed them. The rule behind the calls is not given here. *1 amine or outer side, *2 acyl side, *3 side chain or, on linkers, in order; H or OH if unused. Where a SMILES comes first, the peptide text is derived from it. [ ]: non-standard residue; d: D form. The star is where a group is joined. ξ: configuration not given here. Phe(4-CH2SO3H) = N[C@@H](Cc1ccc(CS(=O)(=O)O)cc1)C(=O)O; C18 diacid = O=C(O)CCCCCCCCCCCCCCCCC(=O)*; γGlu = O=C(O)[C@H](CCC(=O)[*:2])N[*:1]; NMeF = CN[C@@H](Cc1ccccc1)C(=O)O; dNMeD = CN[C@H](CC(=O)O)C(=O)O; ξpGlu = O=C1CCC(C(=O)O)N1; Nle = CCCC[C@H](N)C(=O)O; AEEA = NCCOCCOCC(=O)O

Experiment [1] addresses T1, Cholecystokinin receptor type A (Homo sapiens, UniProt P32238).
T1 sequence (P32238 whole entry): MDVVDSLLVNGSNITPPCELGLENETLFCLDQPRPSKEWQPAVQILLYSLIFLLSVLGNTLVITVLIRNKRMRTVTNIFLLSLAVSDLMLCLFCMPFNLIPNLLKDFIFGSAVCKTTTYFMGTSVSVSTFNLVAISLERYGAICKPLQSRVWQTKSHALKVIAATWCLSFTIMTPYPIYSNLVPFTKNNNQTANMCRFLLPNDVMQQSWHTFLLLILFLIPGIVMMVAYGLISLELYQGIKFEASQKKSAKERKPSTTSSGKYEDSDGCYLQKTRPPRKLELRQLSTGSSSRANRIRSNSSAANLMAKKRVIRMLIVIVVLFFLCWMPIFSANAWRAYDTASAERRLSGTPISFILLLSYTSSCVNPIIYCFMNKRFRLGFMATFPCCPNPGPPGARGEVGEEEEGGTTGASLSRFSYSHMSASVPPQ
Kind of experiment: Agonist activity at human CCK1R expressed in HEK293 cells assessed as ERK1/2 phosphorylation incubated for 5 mins by AlphaScreen assay. The class given is functional, cell-based. In general terms: In Alpha technology, singlet oxygen from a donor bead excites a nearby acceptor bead.

For experiment [2], the target named is T2, Gastrin/cholecystokinin type B receptor (Homo sapiens, UniProt P32239).
T2 sequence (P32239 whole entry): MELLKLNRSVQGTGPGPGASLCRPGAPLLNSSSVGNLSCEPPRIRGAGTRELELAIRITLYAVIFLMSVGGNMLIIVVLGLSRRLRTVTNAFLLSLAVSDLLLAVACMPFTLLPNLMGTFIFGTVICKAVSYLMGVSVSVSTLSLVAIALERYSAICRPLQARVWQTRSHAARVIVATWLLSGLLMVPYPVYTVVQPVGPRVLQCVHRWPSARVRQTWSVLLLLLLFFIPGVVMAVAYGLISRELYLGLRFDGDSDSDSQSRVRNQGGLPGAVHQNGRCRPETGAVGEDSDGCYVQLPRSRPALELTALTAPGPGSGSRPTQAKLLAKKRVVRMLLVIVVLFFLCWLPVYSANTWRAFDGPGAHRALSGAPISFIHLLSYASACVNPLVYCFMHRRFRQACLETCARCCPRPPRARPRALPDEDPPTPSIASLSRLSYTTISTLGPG
The experiment is described as follows: Agonist activity at human CCK2R expressed in HEK293 cells assessed as ERK1/2 phosphorylation incubated for 5 mins by AlphaScreen assay. The class given is functional, cell-based.

For experiment [3], the system named is Mus musculus. The experiment is described as follows: Anti-diabesity activity against high fat diet-induced DIO C57BL/6 mouse model assessed as reduction in fat mass accumulation at 25 nmol/kg, sc administered for 2 weeks and measured on day 15 by NMR analysis. The settings on record: time 15.0 day. The class given is functional, organism-based.
A further experiment deals with BRIN-BD11. The experiment is described as follows: Insulinotropic activity in rat BRIN-BD11 cells assessed as increase in insulin secretion incubated for 20 mins by radioimmunoassay. The class given is functional, cell-based. The settings on record: DDE = dose-dependent effect.
Experiment [4] deals with Mus musculus. Kind of experiment: Anti-diabesity activity against high fat diet-induced DIO C57BL/6 mouse model assessed as improvement in glucose tolerance level at 25 nmol/kg, sc administered for 2 weeks and measured on day 16 by oral glucose tolerance test. The class given is functional, organism-based. Conditions: time 16.0 day.
In experiment [5] the test system is Mus musculus. The experiment is described as follows: Anti-diabesity activity against DIO C57BL/6 mouse assessed as decrease in fat mass at 25 nmol/kg, sc administered every 2 days for 3 weeks. The class given is functional, organism-based. Conditions: time 21.0 day.
Experiment [6] deals with Mus musculus. The experiment is described as follows: Anorectic activity in ICR mouse assessed as decrease in food intake at 25 nmol/kg, ip and measured after 24 hrs. It is filed as functional, organism-based.
The test system of experiment [7] is Mus musculus. The experiment is described as follows: Insulinotropic activity in db/db mouse assessed as elevation of plasma insulin level at 25 nmol/kg, ip administered 30 min before oral glucose administration and measured upto 60 mins by ELISA. The class given is functional, organism-based. Conditions: time <= 90.0 min. A general note: In an ELISA, binding on a coated surface is turned into a signal by an enzyme label.

Experiment [8] relates to Mus musculus. Kind of experiment: Hypoglycemic activity in db/db mouse assessed as improvement in glucose tolerance at 25 nmol/kg, ip administered 30 min before oral glucose administration and measured upto 120 mins by OGTT. The class given is functional, organism-based.
For experiment [9], the system named is Mus musculus. The experiment is described as follows: Hypoglycemic activity in db/db mouse assessed as reduction in glucose excursion at 25 nmol/kg, ip administered 30 min before oral glucose administration and measured upto 120 mins by OGTT. The class given is functional, organism-based.
The subject of experiment [10] is Mus musculus. Kind of experiment: Anti-diabesity activity in DIO C57BL/6 mouse assessed as reduction in body weight at 25 nmol/kg, sc administered every 2 days for 10 days. The settings on record: C57BL/6, 240 h, time 10 day. It is filed as functional.
The test system of experiment [11] is Mus musculus. The experiment is described as follows: Anti-diabesity activity in DIO C57BL/6 mouse assessed as reduction in body weight at 100 nmol/kg, sc administered every 2 days for 10 days. Conditions: C57BL/6, 240 h, time 10 day. The class given is functional.
Experiment [12] relates to Mus musculus. Kind of experiment: Anti-diabesity activity against DIO C57BL/6 mouse assessed as reduction in cholesterol level in serum at 25 nmol/kg, sc administered every 2 days for 3 weeks. It is filed as functional, organism-based. The settings on record: time 21.0 day.
In experiment [13] the test system is Mus musculus. Kind of experiment: Anti-diabesity activity against high fat diet-induced DIO C57BL/6 mouse model assessed as reduction in food intake at 25 nmol/kg, sc administered for 2 weeks. The class given is functional, organism-based. The settings on record: time 14.0 day.
Experiment [14] deals with Mus musculus. Kind of experiment: Anti-diabesity activity against DIO C57BL/6 mouse assessed as reduction in fasted blood glucose level at 25 nmol/kg, sc administered every 2 days for 3 weeks. It is filed as functional, organism-based. The settings on record: time 21.0 day.
The subject of experiment [15] is Mus musculus. Kind of experiment: Anti-diabesity activity against DIO C57BL/6 mouse assessed as reduction in body weight at 25 nmol/kg, sc administered every 2 days for 3 weeks. The class given is functional. The settings on record: C57BL/6, 504 h, time 21 day.
The test system of experiment [16] is Mus musculus. The experiment is described as follows: Anti-diabesity activity against DIO C57BL/6 mouse assessed as improvement in glucose tolerance at 25 nmol/kg, sc administered every 2 days for 3 weeks by OGTT. The class given is functional, organism-based. Conditions: time 21.0 day.
For experiment [17], the system named is Mus musculus. Kind of experiment: Anti-diabesity activity in DIO C57BL/6 mouse assessed as improvement in insulin sensitivity at 25 nmol/kg, sc administered every 2 days for 10 days by insulin tolerance test. Conditions: time 10.0 day. It is filed as functional, organism-based.
The subject of experiment [18] is Mus musculus. The experiment is described as follows: Anti-diabesity activity against DIO C57BL/6 mouse assessed as reduction in triglycerides level in serum at 25 nmol/kg, sc administered every 2 days for 3 weeks. The class given is functional, organism-based. Conditions: time 21.0 day.
For experiment [19], the system named is Mus musculus. Kind of experiment: Anti-diabesity activity against high fat diet-induced DIO C57BL/6 mouse model assessed as reduction in fasted blood glucose level at 25 nmol/kg, sc administered for 2 weeks and measured on day 15 by glucometer analysis. The settings on record: time 15.0 day. The class given is functional, organism-based.
Experiment [20] relates to Mus musculus. Kind of experiment: Anti-diabesity activity against high fat diet-induced DIO C57BL/6 mouse model assessed as decrease in body weight at 25 nmol/kg, sc administered for 2 weeks. Conditions: C57BL/6, 336 h, time 14 day. The class given is functional.
Experiment [21] deals with Mus musculus. Kind of experiment: Anti-diabesity activity in DIO C57BL/6 mouse assessed as reduction in body weight at 10 nmol/kg, sc administered every 2 days for 10 days. Conditions: C57BL/6, 240 h, time 10 day. It is filed as functional.
Experiment [22] relates to Mus musculus. Kind of experiment: Anti-diabesity activity against DIO C57BL/6 mouse assessed as reduction in cumulative food intake at 25 nmol/kg, sc administered every 2 days for 3 weeks. It is filed as functional, organism-based. The settings on record: time 21.0 day.

Broadly, the EC50 is the midpoint of the concentration-response curve. Consider `CC(C)C[C@H](NC(=O)[C@H](Cc1c[nH]c2ccccc12)NC(=O)CNC(=O)[C@H](Cc1ccc(O)cc1)NC(=O)[C@H](C)NC(=O)[C@H](CCC(=O)O)NC(=O)[C@H](CCC(=O)O)NC(=O)[C@H](CCC(=O)O)NC(=O)[C@H](CCC(=O)O)NC(=O)[C@H](CCC(=O)O)NC(=O)[C@H](CC(C)C)NC(=O)[C@H](Cc1c[nH]c2ccccc12)NC(=O)[C@@H]1CCCN1C(=O)CNC(=O)C1CCC(=O)N1)C(=O)N[C@@H](CC(=O)O)C(=O)N[C@@H](Cc1ccccc1)C(N)=O` (stereo not given in full) ([ξpGlu]GPWLEEEEEAYGWLDF-NH2), for which the EC50 in [1] was > 100 nM; in [2] it was 2.4 nM.
As a reminder, the inhibition in vivo is the share of the control response that was lost under treatment. For `CCCC[C@H](NC(=O)[C@H](Cc1ccc(CS(=O)(=O)O)cc1)NC(=O)[C@H](CC(=O)O)NC(=O)COCCOCCNC(=O)COCCOCCNC(=O)CC[C@H](NC(=O)CCCCCCCCCCCCCCCCC(=O)O)C(=O)O)C(=O)NCC(=O)N[C@@H](Cc1c[nH]c2ccccc12)C(=O)N[C@@H](CCCC)C(=O)N(C)[C@H](CC(=O)O)C(=O)N(C)[C@@H](Cc1ccccc1)C(N)=O` ({C18 diacid-γGlu-AEEA-AEEA}-D[Phe(4-CH2SO3H)][Nle]GW[Nle][dNMeD][NMeF]-NH2), the outcome with Mus musculus [3], in the experiment on Mus musculus [4], with Mus musculus [5], with Mus musculus [6], with Mus musculus [7] and in the experiment with Mus musculus [8] was Active. The result in the experiment with Mus musculus [9], in the experiment with Mus musculus [12], in the experiment with Mus musculus [13], in the experiment with Mus musculus [14], in the experiment with Mus musculus [16] and in the experiment on Mus musculus [17] was Active. Also, the result in the experiment on Mus musculus [18], in the experiment with Mus musculus [19] and with Mus musculus [22] was Active. Moreover, the Activity entry in the experiment with BRIN-BD11 was “Dde”. Moreover, the EC50 is 0.21 nM in experiment [1] and > 100 nM in experiment [2]. In addition, the inhibition in vivo at 0.025 µmol/kg was 6.1% in the experiment on Mus musculus [10], 9.8% with Mus musculus [15] and 7.1% with Mus musculus [20]. The inhibition in vivo at 0.1 µmol/kg with Mus musculus [11] amounted to 10%. The inhibition in vivo at 0.01 µmol/kg with Mus musculus [21] is 3.9%.
